Patent US9119821B2, “Use of methionine sulfoximine to treat acute liver failure and other diseases caused by an inflammatory cytokine response” (priority 2010, dated 2015)

Tests used:
[1] = system: CD1 mice treated with LPS/D-GalN; assay: Survival of mice with LPS/D-GalN induced acute liver failure; format: in vivo, mouse; conditions: 890 mg/kg IP 3 hours prior to LPS/D-GalN
From the text: Six to eight week old CD1 mice are obtained from Charles River. Animals were housed in Wayne State University or University of Padova, Vallisneri Interdepartmental Complex animal quarters until the time of the experiment. Food was withdrawn the night before the day of the experiment. All experiments were approved by the Animal Investigation Committee of Wayne State University or by the Authority of the University of Padova and authorized by the Italian Ministry of Health.
Animals were divided into two groups. Group one animals consisted of both male and female mice injected with LPS and D-GalN to induce hepatic failure. Survival was monitored post LPS/D-GalN administration and the time of injection was considered to be zero hour (t=0). Group two animals consisted of mice injected with MSO three hours prior to LPS and D-GalN administration. […] […] For analysis of the effect of MSO treatment on the cell death pathway activated by the Fas ligand, mice were pre-treated with MSO as described above, and at time zero were injected with Jo2 antibody ([…]).
Animals were monitored continuously post LPS/D-GalN or Jo2 administration. […] The time of death was recorded as hours after LPS/D-GalN injection. Fisher's exact test was used to determine two-tailed p values for the statistical between the treated and untreated groups.

glutamine synthetase = molecular target: T1, glutamine synthetase (Mus musculus, UniProt P15105); assay: Glutamine synthetase activity in liver extracts of treated mice; format: in vivo; conditions: 890 mg/kg IP 3 hours prior to LPS/D-GalN
T1 construct: liver homogenates were prepared from liver tissue excised and immediately homogenized; from tissue; host or cells: mouse liver homogenate supernatant
Protocol: Tissue and plasma were collected from male mice, which were divided into two groups. One group was injected with saline three hours prior to LPS/D-GalN injections. The second group was given MSO three hours prior to being injected with LPS/D-GalN. Control mice (t=0) were treated with MSO or saline for 3 hours and then euthanized (not exposed to LPS/D-GalN). After LPS/D-GalN injection at time zero, tissue and plasma samples were collected at one-hour time intervals from 1 to 5 hours.
To analyze enzyme activities liver homogenates were prepared from liver tissue excised and immediately homogenized in ice-cold buffer consisting of 250 mM sucrose, 10 mM Tris and 0.1 mM EGTA with protease inhibitor cocktail (Sigma #P8340). The homogenized tissue was centrifuged at 2375×g for 5 min. The tissue supernatant fraction was frozen on dry ice and stored at −80° C.
Glutamine synthetase was assayed as described by Meister, A. Glutamine synthetase from mammalian tissues. […] The reaction with the substrates glutamine and hydroxylamine was stopped using ferric chloride stop solution (0.37 M FeCl3, 0.67 M HCl, 0.20 M TCA) and the colorimetric product formed—γ-glutamyl hydroxamate—was measured at 535 nm. The absorbance values were converted to activities by comparison to a standard curve of pure glutamyl hydroxamate (a generous gift from Arthur J. Cooper, Department of Biochemistry and Molecular Biology, New York Medical College).

MLP 29 cells = assay: Flow cytometry of apoptosis induced by TNF-α plus actinomycin D; format: cell-based, mouse; conditions: 9 mM, one hour preincubation, then TNF-α plus actinomycin D for 10 hours
Protocol: Output of multiparametric FACS analyses. Mouse liver progenitor cells, MLP 29, are incubated for one hour with either no addition (first lane, FIG. 3C(a)), 9 mM MSO (second lane, FIG. 3C(b)), or 9 mM BSO (third lane, FIG. 3C(c)), then exposed for 10 hours to either no addition—(BAS, first column), TNF-α plus actinomycin D (second column), or actinomycin D alone (third column). Viable cells (V) are delimited by the quadrant. Apoptotic cells display mitochondrial depolarization (reduced TMRM staining) and/or expose phosphatidylserine on their surface (increased Annexin V-FITC staining). Propidium iodide-positive, i.e. dead cells (PI), are evaluated on a PI vs TMRM diagram (not shown); these cells are excluded from the reported plots, but the percentage of propidium iodide positive (i.e. dead) cells is shown in each box (PI), as is the percentage of viable cells (V);
Samples were analyzed on a FACSCalibur flow cytometer (Becton Dickinson, San Diego, Calif.). Data acquisition was performed using CellQuest software and data analysis with WinMD1 software. Each experiment was repeated at least four times.

GGCS = molecular target: T2, GGCS (Homo sapiens, UniProt P48506); conditions: known from the literature; cited from earlier work
T2 sequence (P48506 1-637): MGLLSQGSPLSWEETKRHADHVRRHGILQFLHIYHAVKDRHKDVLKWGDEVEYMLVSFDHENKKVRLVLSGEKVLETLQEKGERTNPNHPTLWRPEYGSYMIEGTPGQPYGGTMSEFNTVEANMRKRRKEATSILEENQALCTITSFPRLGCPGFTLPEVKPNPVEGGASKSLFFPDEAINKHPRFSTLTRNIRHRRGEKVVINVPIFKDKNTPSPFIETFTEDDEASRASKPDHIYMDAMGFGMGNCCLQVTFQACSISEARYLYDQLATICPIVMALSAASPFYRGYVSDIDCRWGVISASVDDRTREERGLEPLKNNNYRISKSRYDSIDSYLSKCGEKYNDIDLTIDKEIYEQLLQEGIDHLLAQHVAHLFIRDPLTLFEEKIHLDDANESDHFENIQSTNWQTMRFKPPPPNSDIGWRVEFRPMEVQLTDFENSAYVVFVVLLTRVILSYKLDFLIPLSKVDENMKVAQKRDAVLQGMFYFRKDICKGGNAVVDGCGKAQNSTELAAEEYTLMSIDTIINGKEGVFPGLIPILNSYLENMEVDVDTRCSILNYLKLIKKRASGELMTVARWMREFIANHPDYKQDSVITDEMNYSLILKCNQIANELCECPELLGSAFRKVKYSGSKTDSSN

T1 sequence (P15105 2-373 limits assumed): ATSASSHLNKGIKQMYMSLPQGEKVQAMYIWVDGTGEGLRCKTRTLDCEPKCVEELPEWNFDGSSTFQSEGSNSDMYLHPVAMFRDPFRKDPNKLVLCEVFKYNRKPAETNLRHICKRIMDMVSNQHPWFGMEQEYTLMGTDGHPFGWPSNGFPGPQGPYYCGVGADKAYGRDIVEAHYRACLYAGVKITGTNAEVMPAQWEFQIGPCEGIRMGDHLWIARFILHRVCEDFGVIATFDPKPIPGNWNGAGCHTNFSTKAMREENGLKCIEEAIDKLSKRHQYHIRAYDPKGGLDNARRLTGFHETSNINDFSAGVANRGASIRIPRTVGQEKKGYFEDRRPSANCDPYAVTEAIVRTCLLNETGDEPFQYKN

CCCCS(=N)(=O)CCC(N)C(=O)O (centres unmarked) [BSO, buthionine sulfoximine, reference compound]
effect on survival of mice treated with LPS/D-GalN [1]: no effect
survival ([1]; 3 out of 20 treated mice survived): 15%
effect on glutamine synthetase activities (glutamine synthetase): no effect
rescue of cells from apoptosis induced by TNF-α (MLP 29 cells): neither MSO nor BSO could rescue cells
inhibition of GGCS, effectiveness relative to MSO (GGCS): 100 times
